Data from US10314909B2, “Combination therapy comprising an MMP-14 binding protein” (DYAX CORP., priority 2011, dated 2019).

B1: DX-2400: human anti-MMP-14 antibody, light and heavy chains of M0038-F01; VH SEQ ID NO: 51, VL SEQ ID NO: 52 (antibody, listed as Homo sapiens, V domains shown)
VH: EVQLLESGGGLVQPGGSLRLSCAASGFTFSLYSMNWVRQAPGKGLEWVSSIYSSGGSTLYADSVKGRFTISRDNSKNTLYLQMNSLRAEDTAVYYCARGRAFDIWGQGTMVTVSS
VL: DIQMTQSPSSLSASVGDRVTITCRASQSVGTYLNWYQQKPGKAPKLLIYATSNLRSGVPSRFSGSGSGTDFTLTISSLQPEDFATYYCQQSYSIPRFTFGPGTKVDIK

Experiments:
Format in all cases: in vivo
[1] = test system: Panc-1 human pancreas cancer xenograft; assay: subcutaneous Panc-1 human pancreas cancer xenograft model, tumor size; settings: BALB/c nude mice, s.c. Panc-1; DX-2400 20 mg/kg i.v. Q3D X6; gemcitabine 50 mg/kg i.p. Q3D X4; compared to untreated mice (FIG. 4A)
Experimental: The in vivo therapeutic efficacy of DX-2400 as a single agent or in combination with gemcitabine was evaluated in the treatment of a subcutaneous Panc-1 human pancreas cancer xenograft model.
(§1) Panc-1 tumor cells were maintained in vitro as a monolayer culture in DMEM medium, supplemented with 10% heat inactivated fetal bovine serum, 100 U/ml penicillin and 100 μg/ml streptomycin, and L-glutamine (2 mM) at 37° C. in an atmosphere of 5% CO2 in air. The tumor cells will be routinely subcultured twice weekly by trypsin-EDTA treatment. The cells growing in an exponential growth phase will be harvested and counted for tumor inoculation.
A total of 56 (40 plus 40% spare) BALB/c nude, female, 6-8 weeks, weighing approximately 18-22 g were purchased from Shanghai Laboratory Animal Center SLAC (Shanghai, China) for use in the study. […]
(§2) The major endpoint is to see if the tumor growth can be delayed or tumor bearing mice can be cured. Tumor sizes were measured twice weekly in two dimensions using a caliper, and the volume was expressed in mm^3 using the formula: V=0.5 a×b^2 where a and b are the long and short diameters of the tumor, respectively. […] T-C is calculated with T as the time (in days) required for the mean tumor size of the treatment group to reach a predetermined size (e.g., 1000 mm^3), and C is the time (in days) for the mean tumor size of the control group to reach the same size. […]

[2] = test system: primary human pancreatic cancer PAM527 xenograft; assay: subcutaneous primary human pancreatic cancer PAM527 xenograft model in nude mice, tumor size; settings: BALB/c nude mice, s.c. PAM527 tumor fragment; DX-2400 20 mg/kg i.v. Q3d x 6; gemcitabine 60 mg/kg i.p. Q4d x 4; compared to untreated mice (FIG. 3A)
Experimental: The in vivo anti-tumor activity of DX-2400 as a single agent or in combination with gemcitabine was evaluated in the treatment of subcutaneous primary human pancreatic cancer using a PAM527 xenograft model in nude mice.
75 BALB/c nude mice, female, 6-8 weeks, weighing approximately 18-24 g were purchased from SLAC, Shanghai, P. R. China (40 mice+˜90% spare). Tumor fragments from seed mice inoculated with selected primary human pancreatic cancer tissues (PAM527) were harvested and used for inoculation into BALB/c nude mice. Each mouse was inoculated subcutaneously at the right flank with one tumor fragment (2-3 mm in diameter) for tumor development. The treatments were started when the mean tumor size reached approximately 150 mm^3. Each group consisted of 10 mice.
as §2

[3] = test system: A375 human melanoma xenograft; assay: subcutaneous A375 human melanoma xenograft model, tumor size; settings: BALB/c nude mice, s.c. A375, DX-2400 20 mg/kg i.v. Q3D X6; for tumor volume: darcabazine 150 mg/kg i.p. Day 1, 4/wk x 3, compared to untreated mice (FIG. 1); for tumor growth rate: darcabazine 150 mg/kg i.p., compared to untreated mice
Experimental: The in vivo therapeutic efficacy of DX-2400 as a single agent or in combination with darcabazine was determined using a subcutaneous A375 human melanoma xenograft model.
as §1, with “A375” for “Panc-1”, “were” for “will be”
(§3) 55 BALB/c nude, female, 6-8 weeks, weighing approximately 18-22 were purchased from Shanghai Laboratory Animal Center SLAC (Shanghai, China) for use in the study (40 mice+˜40% spare). Each mouse was inoculated subcutaneously at the right flank with A375 tumor cells (5×10^6) in 0.1 ml of PBS for tumor development. The treatments were started when the mean tumor size reached approximately 150˜200 mm^3. Each group consisted of 10 mice.
(§4) The major endpoint is to see if the tumor growth can be delayed or tumor bearing mice can be cured. Tumor sizes were measured twice weekly in two dimensions using a caliper, and the volume was expressed in mm^3 using the formula: V=0.5 a×b^2 where a and b are the long and short diameters of the tumor, respectively. The tumor sizes were then used for the calculations of both T-C and T/C values. T-C is calculated with T as the time (in days) required for the mean tumor size of the treatment group to reach a predetermined size (e.g., 1000 mm^3), and C is the time (in days) for the mean tumor size of the control group to reach the same size. The T/C value (in percent) is an indication of antitumor effectiveness, T and C are the mean volume of the treated and control groups, respectively, on a given day.

[4] = test system: SK-MEL-5 human melanoma xenograft; assay: subcutaneous SK-MEL-5 human melanoma xenograft model, tumor size; settings: BALB/c nude mice, s.c. SK-MEL-5, DX-2400 20 mg/kg i.v. Q3D X6, paclitaxel 8 mg/kg i.p. Q4D X6; for tumor growth rate: compared to untreated mice; for tumor volume: compared to untreated mice (FIG. 2)
Experimental: The in vivo therapeutic efficacy of DX-2400 as a single agent or in combination with Paclitaxel in the treatment of human melanoma was evaluated using a subcutaneous SK-MEL-5 human melanoma xenograft model.
SK-MEL-5 human melanoma cells were grown in EMEM medium, supplemented with 10% heat inactivated fetal bovine serum, 100 U/ml penicillin and 100 μg/ml streptomycin at 37° C. in an atmosphere of 5% CO2 in air. The tumor cells were routinely subcultured twice weekly. Cells were harvested during the logarithmic growth period and resuspended in physical PBS with proper cell concentration and kept on ice for tumor induction.
as §3, with “18-22 g (40 mice+˜40% spare) were used for the study. Animals” for “18-22”, “China, Shanghai).” for “China) for use in the study (40 mice+˜40% spare).”, “SK-MEL-5” for “A375”
as §4

| Molecule | mean tumor size [1] | mean tumor size [2] | tumor volume [3] | tumor growth rate [3] | tumor growth rate [4] | tumor volume [4] |
| --- | --- | --- | --- | --- | --- | --- |
| Nc1ccn([C@@H]2O[C@H](CO)[C@@H](O)C2(F)F)c(=O)n1 [gemcitabine] | reduced the tumor size | reduced the tumor size | – | – | – | – |
| CN(C)/N=N/c1[nH]cnc1C(N)=O [darcabazine, dacarbazine] | – | – | reduced tumor volume | caused a reduction in tumor growth rate | – | – |
| CC(=O)O[C@H]1C(=O)[C@@]2(C)[C@H]([C@H](OC(=O)c3ccccc3)[C@]3(O)C[C@H](OC(=O)[C@H](O)[C@@H](NC(=O)c4ccccc4)c4ccccc4)C(C)=C1C3(C)C)[C@]1(OC(C)=O)CO[C@@H]1C[C@@H]2O [paclitaxel] | – | – | – | – | caused a reduction in tumor growth rate | reduced tumor volume |
| B1 | reduced the mean tumor size | reduced the mean tumor size | reduced tumor volume | caused a reduction in the tumor growth rate | caused a reduction in the tumor growth rate | reduced tumor volume |
